Data from article PMC8433052 (iScience, 2021).
Read-outs that look alike come from different tables or passages of the source.

Assays:
HCoV-229E = test: Resazurin reduction assay, HCoV-229E-infected MRC5 cells
HCoV-OC43 = test: Resazurin reduction assay, HCoV-OC43-infected MRC5 cells
[1] = Cytotoxicity against MRC5 cells; type: cell-based, Human; settings: human
Description: (§1) The MTT (3-[4,5-dimethyl-2-thiazolyl]-2,5-diphenyl-2H-tetrazolium bromide) and resazurin reduction assays were carried out as previously described ([Nobori et al., 2018]; [Sanaki et al., 2019]). These were performed to calculate cell viability following viral induced CPE or cytotoxicity. Assay conditions for flaviviruses are as described in Table 2.

SARS-CoV-2 = test: qRT-PCR analysis of SARS-CoV-2 in Caco-2 cells (rescreening, supernatant viral RNA); type: cell-based; settings: qRT-PCR analysis using Caco-2 cells, MOI 0.1, 48 h
MRC5 cells = test: Cytotoxicity against MRC5 cells; type: cell-based, Human; settings: for CC50: rescreening (Table 3), read-out: CC50
Description: as §1

DENV2 [2] = test: MTT assay, DENV2-infected BHK-21 cells; type: cell-based, Dengue virus 2; settings: Dengue virus
[3] = Cytotoxicity assay in BHK-21 cells; type: cell-based, Hamster; settings: hamster
BHK-21 cells = test: Cytotoxicity assay in BHK-21 cells; type: cell-based, Hamster; settings: concentrations up to 20 μM
[4] = molecular target: Recombinant ZIKV NS5 protein (ZIKV RdRp) (Zika virus, UniProt A0A024B7W1); test: Primer extension polymerase activity assay; type: biochemical; settings: RNA P/T, then ATP, GTP, CTP, UTP 100 μM each, 30°C 2 h; 3′-dATP 100 μM, HMTU-TP 0.025-1.6 mM
Description: To generate RNA primer-template complexes (RNA P/T), 0.5 μM fluorescently labeled RNA primer and 2 μM unlabeled RNA template were mixed in 50 mM NaCl, incubated at 95°C for 10 min, and then slowly cooled down to room temperature. The annealed RNA P/T was stored at -30°C before use in the primer extension assay.
The primer extension assay was performed according to a previous report ([Lu et al., 2017]). For analysis of the competitive inhibition ability of HMTU-TP, 200 nM of recombinant ZIKV NS5 (Sino Biological) and 50 nM RNA P/T were incubated 30°C for 15 min in reaction buffer [10 mM Tris-HCl (pH 7.5), 10 mM DTT, 5 mM MgCl2, 5% glycerol, 0.05% Triton-X 100, and 0.02 U/μL RNasein (Promega)], and then ATP analogs [500 μM ATP (Thermo Fischer Scientific), 100 μM 3’-dATP (TriLink), or serially diluted HMTU-TP (0.025, 0.1, 0.4 or 1.6 mM)] were added and incubated at 30°C for 10 min. Primer extension reactions were initiated by the addition of ATP, GTP, CTP and UTP (100 μM each). The reactions were performed 30°C for 2 h and stopped by the addition of quenching buffer (7M Urea, 1X TBE buffer, and 50 mM EDTA). The quenched samples were denatured at 95°C for 5 min, and the primer extension products were separated on a 15% denaturing polyacrylamide gel (Invitrogen). […] The band intensities were analyzed by ImageQuant TL version 8.2.0 (Cytiva).

ZIKV = test: CPE-based antiviral assay (MTT), ZIKV in BHK-21; type: cell-based; settings: Zika virus, BHK-21, 72 h, read-out: EC50 against ZIKV
JEV = test: CPE-based antiviral assay (MTT), JEV in BHK-21; type: cell-based; settings: Japanese encephalitis virus, BHK-21, 72 h, read-out: EC50 against JEV
DENV1 = test: CPE-based antiviral assay (resazurin), DENV1 in BHK-21; type: cell-based, Dengue virus 1; settings: Dengue virus, DENV1, BHK-21, 120 h, read-out: EC50 against DENV1
DENV2 [5] = test: CPE-based antiviral assay (resazurin), DENV2 in BHK-21; type: cell-based, Dengue virus 2; settings: Dengue virus, DENV2, BHK-21, 96 h, read-out: EC50 against DENV2
DENV3 = test: CPE-based antiviral assay (resazurin), DENV3 in BHK-21; type: cell-based, Dengue virus 3; settings: Dengue virus, DENV3, BHK-21, 120 h, read-out: EC50 against DENV3
DENV4 = test: CPE-based antiviral assay (resazurin), DENV4 in BHK-21; type: cell-based, Dengue virus 4; settings: Dengue virus, DENV4, BHK-21, 120 h, read-out: EC50 against DENV4
YFV = test: microbe, parasite or virus in culture; type: cell-based; settings: Yellow fever virus, BHK-21, 72 h, read-out: EC50 against YFV
WNV = test: CPE-based antiviral assay (MTT), WNV in BHK-21; type: cell-based; settings: West Nile virus, BHK-21, 72 h, read-out: EC50 against WNV
rats = system: rats; parameters: method as in Lim et al., 2015; Yin et al., 2009; settings: dosed orally, preclinical, ref Lim et al., 2015, Yin et al., 2009; cited from earlier work
dogs = system: dogs; parameters: method as in Lim et al., 2015; Yin et al., 2009; settings: dosed orally, preclinical, ref Lim et al., 2015, Yin et al., 2009; cited from earlier work
[6] = Human coronavirus 229E, MRC5, read-out: HCoV-229E EC50
[7] = MRC5 cells, resazurin reduction assay
[8] = Betacoronavirus 1, OC43, MRC5, read-out: HCoV-OC43 EC50
[9] = Severe acute respiratory syndrome coronavirus 2
[10] = rescreening (Table 3), read-out: CC50
[11] = read-out: HCoV-229E EC50, MRC5 cells, resazurin reduction assay, rescreening of nine tubercidin derivatives
[12] = read-out: HCoV-OC43 EC50, MRC5 cells, resazurin reduction assay, rescreening of nine tubercidin derivatives

Sequence of Recombinant ZIKV NS5 protein (ZIKV RdRp) (A0A024B7W1 2521-3423): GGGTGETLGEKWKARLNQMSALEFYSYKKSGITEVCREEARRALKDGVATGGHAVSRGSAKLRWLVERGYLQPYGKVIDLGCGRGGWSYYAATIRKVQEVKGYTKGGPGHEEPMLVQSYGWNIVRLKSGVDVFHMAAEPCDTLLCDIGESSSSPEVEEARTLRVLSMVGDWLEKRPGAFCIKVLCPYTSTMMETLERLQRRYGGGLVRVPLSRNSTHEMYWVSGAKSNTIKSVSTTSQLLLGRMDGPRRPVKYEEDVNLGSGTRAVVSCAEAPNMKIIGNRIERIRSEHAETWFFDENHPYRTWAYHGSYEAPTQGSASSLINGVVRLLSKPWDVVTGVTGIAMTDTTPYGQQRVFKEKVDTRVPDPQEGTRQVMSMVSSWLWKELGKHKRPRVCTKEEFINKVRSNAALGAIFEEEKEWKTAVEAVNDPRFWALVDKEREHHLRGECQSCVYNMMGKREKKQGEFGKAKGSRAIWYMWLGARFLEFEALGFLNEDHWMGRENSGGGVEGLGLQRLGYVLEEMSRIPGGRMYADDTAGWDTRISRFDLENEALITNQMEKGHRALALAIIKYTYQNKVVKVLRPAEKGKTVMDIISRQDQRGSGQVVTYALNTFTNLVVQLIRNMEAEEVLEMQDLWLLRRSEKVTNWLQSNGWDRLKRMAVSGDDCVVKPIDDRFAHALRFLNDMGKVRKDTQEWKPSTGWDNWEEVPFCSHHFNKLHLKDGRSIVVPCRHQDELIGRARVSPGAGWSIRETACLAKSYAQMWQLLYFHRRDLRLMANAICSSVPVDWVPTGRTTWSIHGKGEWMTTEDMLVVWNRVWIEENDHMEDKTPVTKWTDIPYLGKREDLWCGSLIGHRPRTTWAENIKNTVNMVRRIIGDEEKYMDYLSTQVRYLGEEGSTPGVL

In the case of `CCC(CC)COC(=O)[C@H](C)N[P@](=O)(OC[C@H]1O[C@@](C#N)(c2ccc3c(N)ncnn23)[C@H](O)[C@@H]1O)Oc1ccccc1` [Remdesivir, reference compound], the EC50 (HCoV-229E; Human coronavirus 229E, MRC5, read-out: HCoV-229E EC50, mean) is reported as 0.071 µM, the EC50 (HCoV-OC43; Betacoronavirus 1, OC43, MRC5, read-out: HCoV-OC43 EC50, mean) is reported as 0.229 µM and the CC50 ([1]; mean from three independent experiments (Table 4), read-out: CC50 MRC5, mean) is reported as > 50 µM.
For `Nc1ncnc2c1c(/C=N\O)cn2[C@@H]1O[C@H](CO)[C@@H](O)[C@H]1O` [HUP1069, 5-formyltuberucidin oxime], the EC50 (HCoV-229E; [6]) was < 0.078 µM, the “anti-HCoV-229E activity (in words)” value (HCoV-229E; [7]) was “strong antiviral activities” and the EC50 (HCoV-OC43; [8]) was 0.055 µM. The “anti-HCoV-OC43 activity (in words)” value (HCoV-OC43; [7]) was “strong antiviral activities”, the EC90 (SARS-CoV-2; [9]) was 0.2 µM and the CC50 [1, 10] was 0.74 µM. The “cytotoxicity (in words)” value (MRC5 cells) was “high cytotoxicity”, the EC50 (DENV2 [2]) was < 0.125 µM and the CC50 [3] was 0.18 µM. For the same compound, the “cytotoxicity (in words)” value (BHK-21 cells) was “high cytotoxicity”.
In the case of `Nc1ncnc2c1c([N+](=O)[O-])cn2[C@@H]1O[C@H](CO)[C@@H](O)[C@H]1O` [HUP1078], the EC50 (HCoV-229E; [11]) is reported as 2 µM, the EC50 (HCoV-OC43; [12]) is reported as > 10 µM and the EC90 (SARS-CoV-2) is reported as 0.1 µM. For the same compound, the CC50 (MRC5 cells) was 0.33 µM.
In the case of `N#Cc1cn([C@@H]2O[C@H](CO)[C@@H](O)[C@H]2O)c2ncnc(N)c12` [HUP1109], the EC50 (HCoV-229E; [11]) is reported as 2.3 µM, the EC50 (HCoV-OC43; [12]) is reported as > 10 µM and the EC90 (SARS-CoV-2) is reported as 0.2 µM. It also gave a CC50 (MRC5 cells) of 0.59 µM.
For `Nc1ncnc2c1c(CO)cn2C1OC(COP(=O)(O)OP(=O)(O)OP(=O)(O)O)C(O)C1O` (centres unmarked) [HMTU-TP, HMTU 5′-triphosphate], the “effect on RNA extension by ZIKV RdRp” value [4] was “incorporated into RNA template, resulting in chain termination”.
In the case of `Nc1ncnc2c1ncn2[C@@H]1O[C@H](COP(=O)(O)OP(=O)(O)OP(=O)(O)O)C[C@H]1O` [3′-dATP, 3'-Deoxyadenosine-5'-Triphosphate, reference compound], the “effect on RNA extension by ZIKV RdRp” value [4] is reported as “prevented RNA extension”.
With `NC(=O)c1ncn([C@@H]2O[C@H](CO)[C@@H](O)[C@H]2O)n1` [Ribavirin] the EC50 (ZIKV) was 31 µM, the EC50 (JEV) was 33 µM and the EC50 (DENV1) was 62 µM. The EC50 (DENV2 [5]) was 19 µM, the EC50 (DENV3) was 54 µM and the EC50 (DENV4) was 86 µM. The EC50 (DENV2 [2]) was 28 µM, the EC50 (YFV) was 34 µM and the CC50 [3] was > 400 µM. It also gave an EC50 (WNV) of 52 µM.
For `C#C[C@@]1(O)[C@H](O)[C@@H](CO)O[C@H]1n1ccc2c(N)ncnc21` [NITD-008, 2′-C-ethynyltubercidin], the toxicity (rats) is given as “significant toxicity” and the toxicity (dogs) is given as “significant toxicity”.
Work on `NC(=O)c1nc(F)c[nH]c1=O` [Favipiravir] yielded an EC50 (ZIKV) of 40 µM, an EC50 (JEV) of 80 µM and an EC50 (DENV1) of 17 µM. The EC50 (DENV2 [5]) was 4.4 µM, the EC50 (DENV3) was 13 µM and the EC50 (DENV4) was 5.2 µM. The EC50 (YFV) was 57 µM and the EC50 (WNV) was > 100 µM.
For `Nc1ncnc2c1ccn2[C@@H]1O[C@H](CO)[C@@H](O)[C@H]1O` [HUP1136, tubercidin], the EC50 (HCoV-229E; [6]) was < 0.078 µM, the “anti-HCoV-229E activity (in words)” value (HCoV-229E; [7]) was “strong antiviral activities” and the EC50 (HCoV-OC43; [8]) was 0.11 µM. The “anti-HCoV-OC43 activity (in words)” value (HCoV-OC43; [7]) was “strong antiviral activities”, the EC90 (SARS-CoV-2; [9]) was 0.087 µM and the CC50 [1, 10] was 0.66 µM. For the same compound, the “cytotoxicity (in words)” value (MRC5 cells) was “high cytotoxicity”, the EC50 (DENV2 [2]) was < 0.125 µM and the CC50 [3] was 0.34 µM. The “cytotoxicity (in words)” value (BHK-21 cells) was “high cytotoxicity”.
With `Nc1c2ccn([C@@H]3O[C@H](CO)[C@@H](O)[C@H]3O)c2nc[n+]1[O-]` [HUP1077, 3-tubercidin N-oxide] the EC50 (HCoV-229E; [6]) was 4 µM, the “anti-HCoV-229E activity (in words)” value (HCoV-229E; [7]) was “strong antiviral activities” and the EC50 (HCoV-OC43; [8]) was 4.3 µM. The “anti-HCoV-OC43 activity (in words)” value (HCoV-OC43; [7]) was “strong antiviral activities”, the EC90 (SARS-CoV-2; [9]) was 3.5 µM and the CC50 [1, 10] was 24 µM. The EC50 (DENV2 [2]) was 0.95 µM, the CC50 [3] was > 20 µM and the “cytotoxicity (in words)” value (BHK-21 cells) was “did not exhibit cytotoxicity”.
